Measurements taken from publication PMC5566973 (Frontiers in Pharmacology, 2017).

Columns and labels:
[1] = test system: ATP (adenosine triphosphate); test: Bidirectional transport in MDCK cell monolayers with selective transporter inhibitors or substrates; assay type: in vitro ADME, canine; conditions: dog, with NaN3 10 mM, + NaN3 10 mM (ATP)
Description: (§1) Caco-2, MDCK and MDCK-MRP2 cells were donated by Prof. Yan Xie and Yueming Ma from Shanghai University of Traditional Chinese Medicine. The cells were grown in culture dishes (Corning® Costar, Cambridge, MA, USA) using DMEM supplemented with 10% FBS, 1% NEAA and 1% penicillin-streptomycin solution. The cells were cultured in 5% CO2 and […] with 90% relative humidity at 37°C. The medium was replaced every other day during incubation. The cells were passaged every 3–4 days between 70 and 80% confluence at a 1:5 split ratio using 0.25% trypsin-EDTA. For the transport experiments, the cells from passages between 30 and 45 were seeded at 1 × 10^5 cells/cm^2 onto permeable polycarbonate inserts (0.45 μm pore size, seeding surface of 0.6 cm^2, Millipore, MA, USA) in 24-well plastic plates. The media in the culture plates were changed every other day for the first week after seeding and were replaced daily afterward. […] The cells were used for the transport experiments 21–28 (Caco-2) or 5–7 (MDCK and MDCK-MRP2) days after seeding, and only monolayers with a TEER-value above 420 Ω cm^2 were used during the studies.
(§2) The apical (AP) and basolateral (BL) sides are typical of polarized Caco-2, MDCK and MDCK-MRP2 epithelial cells. Before the experiments, the polarized cell monolayers were washed twice with warm HBSS solution and subsequently preincubated (37°C, 30 min). Afterward, HBSS solution on both sides of the cell monolayers was removed using a mini desktop vacuum pump. […] The final DMSO concentration in the HBSS or drug mixture was below 0.5%. The monolayers were incubated at 37°C, and 100 μL samples were taken at 30, 60, 90, and 120 min from the acceptor compartment and immediately replaced with the same volume of prewarmed fresh blank HBSS. TEER measurements for assessing the membrane integrity took place before and after the experiments.
(§3) The apparent permeability coefficients (Papp) and ER were calculated as Equations (2) and (3): […]
(§4) where dQ/dt is the steady-state flux, A is the membrane surface area, and C0 is the initial drug concentration in the donor compartment. PappBA is the Papp-value measured in BL to AP direction and PappAB is the Papp-value measured in AP to BL direction. It indicated the involvement of an active transport process when the ER-value is above 1.5 (Hubatsch et al., [2007]).

[2] = test system: BCRP; test: as above; assay type: in vitro ADME, canine; conditions: dog
Description: as §1, §2, §3, §4

[3] = test system: MDCK cell monolayers; test: as above; assay type: in vitro ADME, canine; conditions: 2 μM
Description: as §1, §2, §3, §4

[4] = test system: MDR1; test: as above; assay type: in vitro ADME, canine; conditions: dog
Description: as §1, §2, §3, §4

[5] = test system: MRP2; test: as above; assay type: in vitro ADME, canine; conditions: dog
Description: as §1, §2, §3, §4

[6] = test system: Na+/K+-ATPase; test: as above; assay type: in vitro ADME, canine; conditions: dog, with sodium vanadate 0.05 mM (50 μM), + Sodium vanadate 0.05 mM (Na^+)
Description: as §1, §2, §3, §4

[7] = test system: OATs; test: as above; assay type: in vitro ADME, canine; conditions: dog, with cimetidine 0.05 mM (50 μM), + Cimetidine 0.05 mM (OATs)
Description: as §1, §2, §3, §4

[8] = test system: OCTs/OCTNs; test: as above; assay type: in vitro ADME, canine; conditions: dog, with TEA 5 mM, + TEA 5 mM (OCTs/OCTNs)
Description: as §1, §2, §3, §4

[9] = test system: SGLT1; test: as above; assay type: in vitro ADME, canine; conditions: dog, with phloridzin 0.5 mM, + Phloridzin 0.5 mM (SGLT1)
Description: as §1, §2, §3, §4

[10] = test system: MRP2; test: Western blot analysis of MRP2 protein expression in Caco-2 cells; assay type: cell-based, human; conditions: 48 h, 2 and 5 μM, compared with the control group
Description: The Caco-2 cells were seeded into 6-well plates at a density of 1 × 10^5 cells/mL and cultured for 24 h. […] Protein lysate was collected by centrifugation at 12,000 rpm at 4°C for 10 min, and the total protein content was determined using BCA protein assay kit. Proteins were then mixed with a quarter volume of loading buffer and heated at 100°C for 5 min. Approximately 20 μg of the total protein content was separated by SDS-PAGE through an 8% acrylamide gel and transferred to PVDF membranes. After washing with PBST, the membrane was blocked with 5% fat-free milk in PBST for 1 h at room temperature (RT) and then incubated with anti-MRP2 (1:500) and anti-GAPDH (1:5,000) overnight at 4°C. Afterwards, the membranes were rinsed with PBST and incubated with HRP-conjugated anti-rabbit (1:5,000) secondary antibody for 2 h at RT. After complete washing with PBST, the protein bands were visualized with ECL prime kit (GE Healthcare, NA, UK).

[11] = Control (no inhibitor or substrate)
[12] = with quinidine 0.1 mM (100 μM), + Quinidine 0.1 mM (MDR1)
[13] = with MK571 0.05 mM (50 μM), + MK571 0.05 mM (MRP2)

`COc1ccc2c(c1)[nH]c1c(C)nccc12` [Harmine] showed a Papp A→B at 120 min, 2 μM [1] of 4.02 ± 0.18 ×10⁻⁶ cm/s, a Papp B→A at 120 min, 2 μM [1] of 5.94 ± 0.63 ×10⁻⁶ cm/s and a Papp B→A at 120 min, 2 μM ([2]; with Ko143 0.01 mM (10 μM), + Ko143 0.01 mM (BCRP)) of 7.05 ± 0.16 ×10⁻⁶ cm/s. For the same compound, the Papp B→A at 120 min, 2 μM ([2]; with apigenin 0.025 mM (25 μM), + Apigenin 0.025 mM (BCRP)) was 6.83 ± 1.01 ×10⁻⁶ cm/s, the Modulatory effect ([3]; + Apigenin 0.025 mM (BCRP)) was “−” and the PappAB ([3]; + Apigenin 0.025 mM (BCRP)) was 4.48 ± 0.24 1 × 10^−6 cm/s. For the same compound, the Modulatory effect ([3]; + Cimetidine 0.05 mM (OATs)) was “−”, the PappBA ([3]; + Cimetidine 0.05 mM (OATs)) was 7.43 ± 0.62 1 × 10^−6 cm/s and the Modulatory effect ([3]; + ES 0.05 mM (OATPs)) was “−”. The PappAB ([3]; + ES 0.05 mM (OATPs)) was 4.59 ± 0.22 1 × 10^−6 cm/s, the PappBA ([3]; + ES 0.05 mM (OATPs)) was 7.17 ± 0.68 1 × 10^−6 cm/s and the Modulatory effect ([3]; + Gly-Sar 10 mM (PEPT1)) was “−”. For the same compound, the PappAB ([3]; + Gly-Sar 10 mM (PEPT1)) was 4.59 ± 0.12 1 × 10^−6 cm/s, the PappBA ([3]; + Gly-Sar 10 mM (PEPT1)) was 7.50 ± 0.34 1 × 10^−6 cm/s and the Modulatory effect ([3]; + Ko143 0.01 mM (BCRP)) was “−”. For the same compound, the PappAB ([3]; + Ko143 0.01 mM (BCRP)) was 4.50 ± 0.48 1 × 10^−6 cm/s, the Modulatory effect ([3]; + MK571 0.05 mM (MRP2)) was “+” and the Modulatory effect ([3]; + NaN3 10 mM (ATP)) was “+”. For the same compound, the Modulatory effect ([3]; + Phloretin 0.3 mM (MCTs)) was “−”, the PappAB ([3]; + Phloretin 0.3 mM (MCTs)) was 4.51 ± 0.16 1 × 10^−6 cm/s and the PappBA ([3]; + Phloretin 0.3 mM (MCTs)) was 7.47 ± 0.27 1 × 10^−6 cm/s. The Modulatory effect ([3]; + Phloridzin 0.5 mM (SGLT1)) was “+”, the PappAB ([3]; + Phloridzin 0.5 mM (SGLT1)) was 3.89 ± 0.36^* 1 × 10^−6 cm/s and the Modulatory effect ([3]; + Probenecid 0.2 mM (MRP2)) was “+”. The PappBA ([3]; + Probenecid 0.2 mM (MRP2)) was 7.24 ± 0.27 1 × 10^−6 cm/s, the Modulatory effect ([3]; + Quinidine 0.1 mM (MDR1)) was “−” and the Modulatory effect ([3]; + Sodium vanadate 0.05 mM (Na^+)) was “+”. The Modulatory effect ([3]; + TEA 5 mM (OCTs/OCTNs)) was “+”, the Modulatory effect ([3]; + Verapamil 0.1 mM (MDR1)) was “−” and the PappAB ([3]; + Verapamil 0.1 mM (MDR1)) was 4.59 ± 1.34 1 × 10^−6 cm/s. The PappAB [3, 11] was 4.60 ± 0.25 1 × 10^−6 cm/s, the PappBA [3, 11] was 7.32 ± 0.19 1 × 10^−6 cm/s and the Papp A→B at 120 min, 2 μM [4, 12] was 4.43 ± 0.32 ×10⁻⁶ cm/s. It also gave a Papp B→A at 120 min, 2 μM [4, 12] of 7.39 ± 0.32 ×10⁻⁶ cm/s, a Papp B→A at 120 min, 2 μM ([4]; with verapamil 0.1 mM (100 μM), + Verapamil 0.1 mM (MDR1)) of 7.67 ± 0.21 ×10⁻⁶ cm/s and a Papp A→B at 120 min, 2 μM [5, 13] of 5.14 ± 0.1 ×10⁻⁶ cm/s. It also gave a Papp B→A at 120 min, 2 μM [5, 13] of 6.67 ± 0.37 ×10⁻⁶ cm/s, a Papp A→B at 120 min, 2 μM ([5]; with probenecid 0.2 mM (200 μM), + Probenecid 0.2 mM (MRP2)) of 5.21 ± 0.26 ×10⁻⁶ cm/s and a Papp A→B at 120 min, 2 μM [6] of 3.87 ± 0.27 ×10⁻⁶ cm/s. It also gave a Papp B→A at 120 min, 2 μM [6] of 5.22 ± 0.97 ×10⁻⁶ cm/s, a Papp A→B at 120 min, 2 μM [7] of 4.74 ± 0.13 ×10⁻⁶ cm/s and a Papp A→B at 120 min, 2 μM [8] of 4.15 ± 0.1 ×10⁻⁶ cm/s. The Papp B→A at 120 min, 2 μM [8] was 6.96 ± 0.24 ×10⁻⁶ cm/s, the Papp B→A at 120 min, 2 μM [9] was 6.27 ± 0.78 ×10⁻⁶ cm/s and the “effect on the expression of MRP2” value [10] was “slightly up-regulate”.
